Tests used:
K2P2.1(TREK-1)Δ308 = target: T1, K2P2.1(TREK-1)Δ308 (Mus musculus, UniProt P97438); test: TEVC of C-terminal truncation at residue 308; format: cell-based; conditions: Xenopus oocytes, saturation not reached, fit with upper boundary of 15 (I/I0)
T1 construct: and at residue 308, K2P2.1(TREK-1)Δ308; expressed in transfected cells; host or cells: Xenopus laevis oocytes, mRNA injected
Text: Constructs for murine K2P channels, including K2P2.1(TREK-1) (Gene ID 16526), K2P10.1(TREK-2) (Gene ID 72258), K2P4.1(TRAAK) (Gene ID 16528), K2P5.1(TASK-2) (Gene ID 16529), K2P3.1(TASK-1) (Gene ID 16527), K2P9.1(TASK-3) (Gene ID 223604), and K2P18.1(TRESK) (Gene ID 332396) in pGEMHE/pMO, were used for Xenopus oocyte experiments as previously described.[10],[26] Murine K2P2.1(TREK-1) (Gene ID 16526) was expressed in HEK-293 cells using a pIRES-EGFP construct as previously described.[26] Murine K2P13.1(THIK-1) (Gene ID 217826) and K2P1.1(TWIK-1) (Gene ID 16525) were cloned into pGEMHE/pMO for use in Xenopus oocytes. […]
(§1) Xenopus laevis oocytes were harvested in accordance with UCSF IACUC protocol AN129690 and digested in calcium-free ND-96 (96 mM NaCl, 2 mM KCl, 3.8 mM MgCl2) immediately following harvest, as previously described.[6],[10] […] Defolliculated stage V–VI oocytes were injected with 0.2–6.0 ng of mRNA in 50 nL, and currents were recorded 24–48 h after injection. mRNA was synthesized from plasmid DNA using mMessage mMachine Kit (T7 promoter, Ambion, Life Technologies) and purified using RNEasy Kit (Qiagen). […] Once stabilized basal currents were recorded, compounds were perfused at various concentrations in standard ND96 and currents were allowed to increase to stabilization before recording final current. […]

K2P2.1(TREK-1) W275S = target: T2, K2P2.1(TREK-1) W275S (Mus musculus, UniProt P97438, W290S); test: TEVC of C-type gate activating mutant W275S; format: cell-based; conditions: Xenopus oocytes
T2 construct: expressed in transfected cells; host or cells: Xenopus laevis oocytes, mRNA injected
Text: Diverse types of physical and chemical stimuli activate K2P2.1(TREK-1) by stabilizing the C-type gate and switching the channel into a “leak” mode that is characterized by a loss of outward rectification of the potassium current.[6],[8] Accordingly, we used inside-out patch clamp experiments of K2P2.1(TREK-1) expressed in HEK293 cells to test whether BL-1249 acts on the C-type gate. […] Together with previous single point concentration studies showing the insensitivity of K2P2.1(TREK-1) W275S in mammalian cells,[40] our data provide definitive evidence that BL-1249 activates K2P2.1(TREK-1) by stimulating the C-type gate. […]
as §1

T2 sequence (P97438 1-411 isoform P97438-2 W275S): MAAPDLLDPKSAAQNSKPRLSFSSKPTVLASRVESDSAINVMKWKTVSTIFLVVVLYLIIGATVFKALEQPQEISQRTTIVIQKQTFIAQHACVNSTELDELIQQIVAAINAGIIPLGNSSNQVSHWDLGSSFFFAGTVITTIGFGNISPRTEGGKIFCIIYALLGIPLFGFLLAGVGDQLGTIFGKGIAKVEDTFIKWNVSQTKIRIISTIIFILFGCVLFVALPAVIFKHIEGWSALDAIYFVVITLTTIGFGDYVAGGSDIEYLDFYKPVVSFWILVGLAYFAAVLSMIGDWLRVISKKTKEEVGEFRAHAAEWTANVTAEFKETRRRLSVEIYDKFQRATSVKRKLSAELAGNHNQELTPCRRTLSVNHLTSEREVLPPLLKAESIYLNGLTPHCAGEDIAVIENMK
T1 sequence (P97438 1-308 isoform P97438-2): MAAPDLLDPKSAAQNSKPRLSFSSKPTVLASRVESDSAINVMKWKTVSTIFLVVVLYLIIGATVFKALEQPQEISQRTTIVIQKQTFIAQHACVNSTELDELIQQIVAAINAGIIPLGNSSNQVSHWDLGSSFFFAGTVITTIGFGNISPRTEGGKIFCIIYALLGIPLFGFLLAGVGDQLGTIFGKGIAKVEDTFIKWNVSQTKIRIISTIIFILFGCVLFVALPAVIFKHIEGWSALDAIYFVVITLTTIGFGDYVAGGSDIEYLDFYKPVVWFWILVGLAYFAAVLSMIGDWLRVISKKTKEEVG

For `c1ccc(-c2nnn[nH]2)c(Nc2cccc3c2CCCC3)c1` [BL-1249, (5,6,7,8-tetrahydro-naphthalen-1-yl)-[2-(1H-tetrazol-5-yl)-phenyl]-amine], the EC50 (K2P2.1(TREK-1)Δ308) was 35 ± 8 µM, the EC50 (K2P2.1(TREK-1) W275S) was greater than 60 µM and the “sensitivity of K2P2.1(TREK-1) W275S to compound” value (K2P2.1(TREK-1) W275S) was “insensitive”.

Source: publication PMC6302903, “Protein and Chemical Determinants of BL-1249 Action and Selectivity for K2P Channels” (ACS Chemical Neuroscience, 2018)
